The values below are quoted from earlier work in US20100255118A1, “ORAL ZINC MEDICANTS USEFUL FOR SAFELY LOWERING FREE COPPER ABSORPTION AND FREE COPPER LEVELS” (priority 2007, published 2010).

For series [1] the following is noted: infant rhesus monkeys.
For series [2] the following is noted: adequate intake by mothers prior to pregnancy.
For series [3] the following is noted: Wilson's patients.
For series [4] the following is noted: humans, oral dose of Cu64 as copper acetate.

As for `[67Cu]` [Cu^67], the copper absorption in series [1] is reported as 50-70%.

Regarding `Nc1nc2ncc(CNc3ccc(C(=O)N[C@@H](CCC(=O)O)C(=O)O)cc3)nc2c(=O)[nH]1` [folic acid], the “reduction of the incidence of NTDs” value in series [2] is given as “up to 70%”.

As for `[Zn]` [zinc], the “time to achieve intestinal metallothionein induction and a negative copper balance” value in series [3] is “approximately two”. Also, the “copper balance induced (average)” value in series [3] (at the two week point) is −0.35 mg daily.

Consider copper acetate, for which the “oral dose absorbed from the gastrointestinal tract” value in series [4] was “about 65%”. The “oral dose absorbed from the gastrointestinal tract (range)” value in series [4] (range) is listed as 15-97%.
